Source: patent US20220259556A1, “METHOD FOR OBTAINING IMMUNO-SUPPRESSIVE DENDRITIC CELLS” (Transimmune AG, priority 2013, published 2022)
Entries after “also recorded” stand apart in the source; their conditions may differ. Ends that are not written are not given here.

Tests used:
platelets = experiment: Platelet adhesion studies in Vena8 flow chamber; assay type: cell-based, human
Description: For experiments not involving the collection and phenotyping of cells post-flow, Vena8 biochips (Cellix Ltd, Dublin, Ireland) were used to generate laminar flow. The volumetric flow path for a channel of the Vena8 biochips measured 20000×400×100 microns (length×width×height). Protein coating of these chips is described in the appropriate section below.
Platelet adhesion experiments were performed using the Vena8 flow chamber described above. Fibrinogen and fibronectin (Sigma) were dissolved in PBS to a final concentration of 200 mcg/ml. Channels of the Vena8 chips were incubated at room temperature in a humidified chamber for 2 hours with the protein solution, autologous plasma, or PBS alone. The channels were washed with 5× the volume RPMI. Platelet-rich-plasma was then perfused through the protein-coated channel at the indicated shear-stress, held constant. For each channel, still images were acquired exactly 90 seconds into the experiment at 4 pre-defined low power fields located along the flow path (fields were centered at 2500, 7500, 12500, and 17500 microns from the start point of infusion).
Some experiments involved pre-treating platelet-rich-plasma with protein fragments prior to infusion through the channels. Small RGD peptides, containing the amino-acid sequence Arg-Gly-Asp-Ser; DRG peptides, contain the amino-acid sequence Ser-Asp-Gly-Arg; or fragment 400-411 of fibrinogen, containing the amino-acid sequence His-His-Leu-Gly-Gly-Ala-Lys-Gln-Ala-Gly-Asp-Val, were incubated at a concentration of 2 mM with PRP for 20 minutes at room temperature. The PRP was then perfused through the channels as previously described.

MoDC = experiment: Immunophenotyping of MoDC (HLA-DR, CD80, CD83, CD86, intracellular GILZ); assay type: cell-based, human; details: product of 8-MOP and UVA exceeded 100; 24 hr after PUVA
Description: (§1) Lymphocytes were treated with 8-MOP (100 ng/mL) and UVA (1 J/cm^2), washed with PBS, and co-cultured in complete media at 37° C. and 5% CO2 with either PUVA-treated or untreated-MoDC in a ratio of 5 or 10 lymphocytes to 1 MoDC. MoDC treated for 24 hr with 100 nM dexamethasone (Sigma) served as the positive control group. After 24 hr, cells were harvested and MoDC were re-purified. […] CD11c^+ MoDC were re-plated at 0.5-1.0×10^6 cells/mL in complete media and stimulated with 100 ng/mL LPS (Sigma). 24 hr after LPS stimulation, cells were harvested for RNA isolation and immunophenotyping, and supernatants were collected for cytokine quantification.
Monoclonal antibodies included HLA-DR, CD80, CD83, CD3, CD86, CD14, CD11c and GILZ. Antibodies were obtained from Beckman-Coulter and eBioscience and were used at their pre-determined optimal dilutions. Apoptosis was assessed using the Annexin-V Apoptosis Detection Kit (eBioscience), with Annexin-V recognizing phosphatidylserine (PS) on the surface of apoptotic cells. 7-AAD substituted for PI as the cell viability dye. Cells displaying an Annexin-V^+/7-AAD^− phenotype were classified as early apoptotic cells, and cells displaying an Annexin-V^+/7-AAD^+ phenotype were classified as late apoptotic cells. Dual membrane and intracytoplasmic staining was performed using the IntraPrep fix and permeabilization kit (Beckman-Coulter). Background staining was established with appropriate isotype and fluorescence minus one controls. Immunofluorescence was analyzed using a FACSCalibur L (BD Biosciences) within 2 hr of fixation with 2% paraformaldehyde. A minimum of 10,000 events were collected for each group.

lymphocytes = experiment: Apoptosis of lymphocytes (Annexin-V/7-AAD); assay type: cell-based, human; details: 1 J/cm^2 and 100 ng/mL
Description: as §1
Monoclonal antibodies included HLA-DR, CD80, CD83, CD3, CD86, CD14, CD11c and GILZ. Antibodies were obtained from Beckman-Coulter and eBioscience and were used at their pre-determined optimal dilutions. Apoptosis was assessed using the Annexin-V Apoptosis Detection Kit (eBioscience), with Annexin-V recognizing phosphatidylserine (PS) on the surface of apoptotic cells. 7-AAD substituted for PI as the cell viability dye. […] Background staining was established with appropriate isotype and fluorescence minus one controls. Immunofluorescence was analyzed using a FACSCalibur L (BD Biosciences) within 2 hr of fixation with 2% paraformaldehyde. […]

GILZ = GILZ expression in plate-passed PBMC treated with 8-MOP and UVA; assay type: cell-based; details: monocytes physically activated by passage through device, then 8-MOP and UVA
Description: Monocytes were passed through a device derived from the Therakos system. The dimensions of the flow chamber were 30 mm width, 1600 mm length, and 1 mm height. In brief, a blood sample was spun at low speed through a Ficoll gradient to obtain e.g. 80 ml of sample with a concentration of peripheral blood mononuclear cells (PBMC) of e.g. 1.5*10^6 cells/ml. The chamber was pre-coated with platelets. The sample was passed through the chamber for 60 min at a flow rate of about 24 ml/min corresponding to a shear stress of about 0.13 Pa. The collected activated monocytes were spun at low speed and resuspended in a small volume of medium comprising 8-MOP and irradiated with […], incubated for a day and used for further analysis (Day 1PBMC+PP). As a control PBMCs were not passed through the device and incubated for a day (Day 1 PBMC). Further, PBMC were analyzed directly after harvest through a Ficoll gradient (Day0 PBMC). Day 1 PBMC+PP were then further treated with 8-MOP and UVA (PUVA). The cells and controls were then analyzed for expression of GILZ.

monocytes = experiment: Static co-cultures of platelets with monocytes; assay type: cell-based, human; details: static conditions, 18 hours
Description: Experiments involving co-cultures of monocytes with additional platelets were performed as described in the Overnight Culture section, with a few necessary modifications. Following Ficoll-Hypaque separation, mononuclear cells were resuspended in 30% AB serum/RMPI to a final concentration of 10×10^6 cells/ml, of which 1 ml was allocated to each well of a 16-well plate. An additional 1 ml of platelets (suspended in RPMI, at 2× the desired final concentration) or RPMI without platelets was then added to each well. To activate platelets, 500 μl containing 2 units of thrombin was added to half the wells, and 500 μl of RPMI was added to the others to balance the volume. Cells were then incubated as described previously.

## fibrinogen
platelets; unactivated platelets in flow, wall shear stress 0.2 to 6.0 dyne/cm^2
  Platelet adhesion to plates pre-coated with the protein: highest concentrations of platelets adhered

## Arg-Gly-Asp-Ser (RGDS; printed: Arg-Gly-Asp-Ser) [RGD peptides, Small RGD peptides]
platelets; platelets (PRP) pre-incubated with 2 mM peptide for 20 minutes, flow
  Platelet adhesion to fibronectin-coated plates: decreased

## HHLGGAKQAGDV [fragment 400-411 of fibrinogen]
platelets; platelets (PRP) pre-incubated with 2 mM peptide for 20 minutes, flow, listed as gamma fragments
  Platelet adhesion to fibrinogen-coated plates: decreased

## COc1c2occc2cc2ccc(=O)oc12 [8-MOP, 8-methoxypsoralen]
MoDC
  Reduction of CD80 cell surface expression: 30%
  Reduction of CD83 cell surface expression: 31%
  Reduction of CD86 cell surface expression: 54%
lymphocytes
  Time to Annexin-V display by lymphocytes: 2 h
GILZ
  GILZ expression / differentiation of activated monocytes: can be channeled into immuno-suppressive dendritic cells; also recorded: increase of expression of GILZ

## thrombin
monocytes
  Monocyte differentiation versus cultures with platelets not activated by thrombin: did not cause a discernible difference
